This note sets out measurements from article PMC9367672, “In vitro differences in toddalolactone metabolism in various species and its effect on cytochrome P450 expression” (Pharmaceutical Biology, 2022).

One data set addresses CYP3A5 (Homo sapiens, UniProt P20815). Nature of the data set: Enzyme kinetics of toddalolactone metabolism by recombinant CYP3A5. The conditions noted are these: P4 formation.
The test system of a further data set is other rhCYP isoforms. The data set is described as follows: Reaction phenotyping with the other recombinant human CYP isoforms. It is filed as in vitro ADME. The conditions noted are these: other rhCYP isoforms (of thirteen), 15 nM, 37 °C, 60 min. The protocol:
(§1) The CYP reaction system (200 μL) consisted of 0.1 M potassium phosphate buffer (pH 7.4), an NADPH-generating system (1 mM NADPH, 10 mM G-6-P, 1 unit/mL G-6-PD, 4 mM MgCl2), and liver microsomes or recombinant human microsomes (supersomes). Each of the in vitro enzymatic assays using liver microsomes was linear with respect to incubation time and amount of protein. After a pre-incubation at 37 °C for 3 min, the reactions were initiated by adding NADP^+. After incubating for 60 min, the reactions were quenched by adding 200 μL of ice-cold acetonitrile. Samples were centrifuged at 18,000 g for 15 min at 4 °C and 10 μL of supernatant was analyzed using an HPLC system. NADPH or CYP enzyme sources were not used in the control group to ensure that the metabolic reactions were CYP- and NADPH-dependent. All incubation assays were completed in triplicate. The data are presented as mean ± standard deviation (SD).
Thirteen cDNA-expressed human CYP isoforms (CYP1A1, CYP1A2, CYP2A6, CYP2B6, CYP2C8, CYP3A4, CYP2C19, CYP3A5, CYP1B1, CYP2C9, CYP2D6, CYP2E1 and CYP4F2) were used to identify the isoform(s) involved in the biotransformation of toddalolactone. Toddalolactone (10 μM) was incubated with each recombinant CYP (15 nM) for 60 min at 37 °C and metabolites were identified by HPLC.

In the next data set the test system is RAMs. The data set is described as follows: Enzyme kinetics of toddalolactone metabolism in rabbit liver microsomes (oxidative metabolism and glucuronidation). The conditions noted are these: RAMs; for V max: toddalolactone 1–200 μM. It is filed as in vitro ADME. The protocol:
as §1
(§2) In the UGT reaction system, liver microsomes were incubated in 200 μL of the reaction system containing 4 mM UDPGA, 5 mM MgCl2, 20 µg/mL alamethicin, and 50 mM Tris-HCl buffer (pH 7.4). After pre-incubation at 37 °C for 3 min, UDPGA was added to the mixture to initiate the reactions. The mixtures were incubated at 37 °C for 60 min, followed by the addition of 200 μL of cold methanol to terminate the reactions. After centrifugation at 18,000 g for 15 min, 10 μL of the supernatant was analyzed by HPLC.
(§3) The enzyme kinetics of toddalolactone in oxidative metabolism and glucuronidation were determined by incubating liver microsomes (0.2 mg/mL) or CYPs (15 nM) with different concentrations of toddalolactone (1–200 μM). The kinetic parameters including Km and Vmax were obtained by fitting the experimental data to the Michaelis–Menten equation (Equation (1)), biphasic kinetics equation (Equation (2)), or substrate inhibition equation (Equation (3)) (He et al. [2018]), and the results were graphically represented on Eadie–Hofstee plots. The in vitro intrinsic clearance (CLint) was calculated based on the Vmax/Km ratio. Metabolites were quantified using the standard curve for toddalolactone because of the absence of metabolite standards. All incubations were repeated in three independent experiments. Kinetic constants were expressed with mean ± SD: (1) V=Vmax×[S]/Km+[S] (2) V=Vmax1×[S]/Ks1+[S]+Vmax2×[S]/Ks2+[S] (3) V=Vmax×[S]/Ks+[S]+[S]^2/Ksi where v is the rate of reaction, Vmax is the estimated maximum velocity, [S] is the substrate concentration, and Km is the affinity constant of the substrate; Vmax1 and Vmax2 represent the estimated maximum velocity of the two metabolic phases; Ks1 and Ks2 represent the affinity constants for two metabolic phases; Ks and Ksi are the substrate affinity and inhibition constants, respectively.
(§4) The enzyme kinetics in oxidative metabolism and glucuronidation of toddalolactone were studied, and preliminary experiments were performed to ensure that metabolites were formed in the linear range of both reaction time and microsomal protein concentration. The metabolite with the largest peak area was used to calculate the kinetic parameter values (Km, Vmax and CLint). Based on the results of toddalolactone metabolism in different species, the kinetic parameter values in RLMs, DLMs, MLMs, HLMs, RAMs, MIMs, PLMs, CYP1A1 and CYP3A5 were calculated using P4, P4, P4, P4, P2, P2, P4, P4 and P4 data in oxidative metabolism, respectively. In the glucuronidation reaction, the kinetic parameter values in RLMs, MLMs, HLMs, RAMs and PLMs were calculated using P5, P6, P6, P6 and P5 data, respectively.

Test in data set [1]: as above
Particulars: rabbit, liver microsomes, pH 7.4, RAMs, Vmax/Km. It counts as in vitro ADME. The protocol: as §1, §2, §3, §4

The mark [2] stands for this setting: P450-catalyzed oxidation, P2 formation.
Setting [3] is: glucuronide metabolism, P6 formation.

CYP3A5, sequence (P20815 whole entry, canonical isoform): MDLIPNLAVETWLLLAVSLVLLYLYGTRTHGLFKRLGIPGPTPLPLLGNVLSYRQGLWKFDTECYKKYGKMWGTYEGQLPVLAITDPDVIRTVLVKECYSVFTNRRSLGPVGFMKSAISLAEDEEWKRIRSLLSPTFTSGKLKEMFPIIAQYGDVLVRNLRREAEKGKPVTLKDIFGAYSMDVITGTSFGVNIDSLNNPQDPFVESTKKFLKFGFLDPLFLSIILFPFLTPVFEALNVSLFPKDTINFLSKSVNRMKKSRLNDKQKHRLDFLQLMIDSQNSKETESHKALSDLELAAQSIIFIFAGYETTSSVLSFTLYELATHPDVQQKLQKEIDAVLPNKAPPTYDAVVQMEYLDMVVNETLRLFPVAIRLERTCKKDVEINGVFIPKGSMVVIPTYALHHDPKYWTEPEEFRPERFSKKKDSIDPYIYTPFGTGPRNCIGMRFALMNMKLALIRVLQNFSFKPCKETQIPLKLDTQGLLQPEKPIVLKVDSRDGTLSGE
Experimental for CYP3A5: The enzyme kinetics of toddalolactone in oxidative metabolism and glucuronidation were determined by incubating liver microsomes (0.2 mg/mL) or CYPs (15 nM) with different concentrations of toddalolactone (1–200 μM). The kinetic parameters including Km and Vmax were obtained by fitting the experimental data to the Michaelis–Menten equation (Equation (1)), biphasic kinetics equation (Equation (2)), or substrate inhibition equation (Equation (3)) (He et al. [2018]), and the results were graphically represented on Eadie–Hofstee plots. The in vitro intrinsic clearance (CLint) was calculated based on the Vmax/Km ratio. Metabolites were quantified using the standard curve for toddalolactone because of the absence of metabolite standards. All incubations were repeated in three independent experiments. Kinetic constants were expressed with mean ± SD: (1) V=Vmax×[S]/Km+[S] (2) V=Vmax1×[S]/Ks1+[S]+Vmax2×[S]/Ks2+[S] […]

For the compound `COc1cc2oc(=O)ccc2c(OC)c1C[C@@H](O)C(C)(C)O` [toddalolactone], the results for the K m on CYP3A5 (recombinant CYP3A5 (15 nM)), in the data set on RAMs (setting [2]) and in the data set with RAMs (setting [3]) were 50.34 ± 8.62 µM, 76.46 ± 16.02 µM and 91.46 ± 28.22 µM, respectively. The CLint on CYP3A5 (recombinant CYP3A5, Vmax/Km) is listed as 0.013 µL/min/nmol CYP. The “catalysis of toddalolactone metabolism by rhCYP isoform” value in the data set on other rhCYP isoforms is “very limited or even no catalytic activity”. Moreover, the V max in the data set with RAMs (setting [2]) is given as 20.03 ± 1.72 pmol/min/mg protein; with RAMs (setting [3]), 11.98 ± 2.19 pmol/min/mg protein. Also, the microsomal CLint in data set [1] (setting [2]) came to 0.26 µL/min/mg; in data set [1] (setting [3]), 0.12 µL/min/mg.
